Results reported in ChEMBL document CHEMBL1126547, “Cardioselective anti-ischemic ATP-sensitive potassium channel openers” (J Med Chem, 1993).
Activity calls are given as the source filed them. No cut-off for these calls is given here.

Legend:
Rattus norvegicus [1] = species: Rattus norvegicus; experiment: Anti-ischemic potency determined as concentration required for increase in time to contracture in globally ischemic rat hearts; format: functional
Rattus norvegicus [2] = species: Rattus norvegicus; experiment: Vasorelaxant potency determined by inhibition of methoxamine-contracted rat aorta; format: functional
[3] = Ratio between EC25 and IC50 values was determined
[4] = Oral bioavailability in rat; format: ADME, organism-based; settings: in vivo
[5] = Plasma half-life was determined in rats; format: ADME, organism-based; settings: rat, read-out: Elimination half-life (converted)
Rattus norvegicus [6] = species: Rattus norvegicus; experiment: Anti-ischemic potency determined as concentration required for increase in time to contracture in globally ischemic rat hearts 10 uM; No significant activity; format: functional

| SMILES | EC25 (Rattus norvegicus [1]) | IC50 (Rattus norvegicus [2]; Rattus norvegicus, Aorta) | Ratio [3] | further results |
| --- | --- | --- | --- | --- |
| CC1(C)Oc2ccc([N+](=O)[O-])cc2[C@@H](/N=C(\NC#N)Nc2ccccc2)[C@@H]1O | 7.2 µM | 2 µM | 3.6 |  |
| CC1(C)Oc2ccc(C#N)cc2[C@@H](/N=C(\S)Nc2ccccc2)[C@@H]1O | 7.7 µM | 1.7 µM | 4.5 |  |
| CC1(C)Oc2ccc(C#N)cc2[C@@H](/N=C(\NC#N)Nc2ccccc2)[C@@H]1O (stereo in doubt; 5) [listing 1 of 2 here] |  |  | 7.9 |  |
| CC1(C)Oc2ccc(C#N)cc2[C@@H](/N=C(\NC#N)Nc2ccc(F)cc2)[C@@H]1O | 3.5 µM | 1.4 µM | 2.5 | bioavailability [4]: 64%; half-life [5]: 1.7 h |
| CC1(C)Oc2ccc(C#N)cc2[C@@H](NC(=O)Nc2ccccc2)[C@@H]1O | 5.1 µM |  |  |  |
| CC1(C)Oc2ccc(C#N)cc2[C@@H](/N=C(\NC#N)Nc2ccccc2)[C@@H]1O (stereo in doubt; 13) | >30 µM |  |  | IC50 (Rattus norvegicus [2]): 4.2 µM |
| CC1(C)Oc2ccc(C#N)cc2[C@@H](/N=C(\NC#N)Nc2ccc(O)cc2)[C@@H]1O | 33.4 µM | 2.2 µM | 15.2 |  |
| CC1(C)Oc2ccc(C#N)cc2[C@@H](/N=C(\NC#N)Nc2ccccc2)[C@@H]1O (stereo in doubt; 12) [listing 1 of 2 here] |  |  | 4.7 |  |
| CC1(C)Oc2ccc(C#N)cc2[C@@H](/N=C(\NC#N)Nc2ccccc2)[C@@H]1O (stereo in doubt; 12) [listing 2 of 2 here] | 6.1 µM |  |  | IC50 (Rattus norvegicus [2]): 1.3 µM; bioavailability [4]: 70%; half-life [5]: 1.8 h |
| CC1(C)Oc2ccccc2[C@@H](/N=C(\NC#N)Nc2ccccc2)[C@@H]1O |  | 72.7 µM |  | EC25 (Rattus norvegicus [6]): inactive |
| C#Cc1ccc2c(c1)[C@@H](/N=C(\NC#N)Nc1ccccc1)[C@H](O)C(C)(C)O2 | >30 µM | 5.4 µM |  |  |
| CC1(C)Oc2ccc(C#N)cc2[C@@H](/N=C(\NC#N)Nc2ccc(Cl)cc2)[C@@H]1O | 2.5 µM | 1.8 µM | 1.4 |  |
| CC1(C)Oc2ccc(C#N)cc2[C@@H](/N=C(\NC#N)Nc2ccc(C(F)(F)F)cc2)[C@@H]1O | 13.4 µM | 8.1 µM | 1.7 |  |
| CC1(C)Oc2ccc(C#N)cc2C(N2CCCC2=O)C1O (stereo unspecified) [CROMAKALIM] | 8.9 µM | 0.032 µM | 278 |  |
| CC1(C)Oc2ccc(C#N)cc2[C@@H](NC(=NC#N)Nc2ccc(Cl)cc2)[C@@H]1O |  |  |  | bioavailability [4]: 61%; half-life [5]: 7 h |
| CC1(C)Oc2ccc(C#N)cc2[C@@H](/N=C(\NC#N)Nc2ccccc2)[C@@H]1O (stereo in doubt; 5) [listing 2 of 2 here] | 11 µM |  |  |  |
| CCC(C)(C)/N=C(\NC#N)N[C@@H]1c2cc(C#N)ccc2OC(C)(C)[C@H]1O | 20.1 µM |  | 0.7 |  |
